Source: patent publication EP1049703B1, “N-[2-(5-BENZYLOXYCARBONYL-AMINO-6-OXO-2-(4-FLUOROPHENYL)-1,6-DIHYDRO-1-PYRIMIDINYL)ACETOXYL]-L-ASPARTIC ACID ALDEHYDE AS AN IN VIVO INHIBITOR OF INTERLEUKIN-1BETA CONVERTING ENZYME” (WARNER-LAMBERT COMPANY, priority 1998, dated 1999)
pIC50, pKi: −log10 of the molar value.

What was measured:
[1] = tested on: IL-1β production in human peripheral blood mononuclear cells (PBMCs); assay: PBMC cellular assay: LPS-stimulated IL-1β production (ELISA); assay type: cell-based; settings: PBMCs stimulated overnight with 10 ng/mL LPS, concentration which reduces IL-1β levels by 50%, read-out: 3. PBMC IC50
From the text: Further evidence that compound 1 is a potent inhibitor of ICE is provided by its ability to inhibit IL-1β production in human peripheral blood mononuclear cells (PBMCs) as described herein. PBMCs are isolated from heparinized blood by centrifugation over a ficoll cushion, then washed three times with phosphate-buffered saline. PBMCs are suspended in a medium containing RPMI 1640 with glutamine, penicillin, streptomycin, and 2% human AB serum, then plated at 10^6 cells per well in 96 well flat bottom plates. PBMCs are stimulated overnight with 10 ng/mL of lipopolysaccharide (LPS, E. Coli strain 0111:B4; Calbiochem) in the presence or absence of compound 1 or 2. Medium is harvested, and the level of mature IL-1β was determined using an ELISA kit from R & D Systems. Compound inhibition is assessed by determining the concentration of agent which reduces IL-1β levels by 50%. Cells were cultured for an additional 4 hours in the presence of 3-(4, 5-dimethylthiazol-2-yl)-2, 5-diphenyltetrazolium bromide (MTT) to determine viability. Compound toxicity can, therefore, be assessed by determining the concentration of agent which kills 50% of the cells (IC50).

[2] = tested on: IL-1β production; assay: Mouse model: LPS-induced plasma IL-1β production; assay type: in vivo, Female C57BL/6 mice; settings: for inhibition of IL-1β production: 5 mg/kg LPS i.v. at T0, compound i.v. at 3.75 hours, plasma at T4h, compared to vehicle treated animals; for production of IL-1β (result in words): summary statement
Method: Female C57BL/6 mice are injected intravenously with 5 mg/kg lipopolysaccaride (LPS) (E. coli 0111:B4) at T0; this induces production of the cytokine interleukin-1β. After 3.75 hours from the administration of LPS, the mice are injected intravenously with either vehicle or a test compound. The mice are bled at T4h and plasma analyzed for IL-1β by ELISA. The vehicle is 5% DMSO/20% Trappsol/3% Dextrose/NMDG.

[3] = molecular target: T1, ICE (Homo sapiens, UniProt P29466); assay: ICE inhibition studies (fluorogenic substrate Ac-Tyr-Val-Ala-Asp-AMC, Ki); assay type: biochemical
T1 sequence (P29466 120-297 limits assumed): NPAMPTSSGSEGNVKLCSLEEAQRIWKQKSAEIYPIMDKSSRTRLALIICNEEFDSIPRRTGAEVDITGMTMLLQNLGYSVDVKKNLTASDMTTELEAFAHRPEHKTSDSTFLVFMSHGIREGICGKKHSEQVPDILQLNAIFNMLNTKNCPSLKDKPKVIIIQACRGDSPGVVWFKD
T1 sequence (P29466 317-404 limits assumed): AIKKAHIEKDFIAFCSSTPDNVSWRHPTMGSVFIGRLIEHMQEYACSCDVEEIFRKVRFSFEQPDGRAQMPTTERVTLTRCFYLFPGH
Method: ICE (0.24 nM final concentration) is added to 400 µL of HGDE buffer (100 mM HEPES, 20% glycerol, 5 mM DTT, 0.5 mM EDTA) containing 15 µM substrate (Ac-Tyr-Val-Ala-Asp-AMC; KM = 15 µM) plus vehicle (DMSO) or inhibitor at concentrations bracketing the Ki. Substrate hydrolysis is monitored for 300 seconds by observing the fluorescence of released AMC using excitation at 380 nm and emission at 460 nm. Mean rates of substrate hydrolysis are evaluated by linear-regression analysis of the fluorescence vs time traces. To evaluate Ki, plots of percent inhibition vs inhibitor concentration are fit by non-linear regression to a reversible, competitive model: [formula] where the competition factor (1 + [S]/KM) = 2.

[4] = molecular target: T1, ICE; assay: ICE colorimetric dose-response (IC50) assay; assay type: biochemical; settings: about 24 nM ICE, 60 minutes preincubation, 50 µM Ac-Tyr-Val-Ala-Asp-pNA; read-out: 2. ICE IC50
Method: Diluted inhibitor stocks are prepared by two-fold serial dilution from a primary stock whose concentration is selected (based on screening results or on prior attempts at IC50 evaluation) to achieve approximately 95% inhibition in the most concentrated well. Aliquots of each dilution are transferred to a microtitre plate in triplicate.
ICE enzyme is diluted to approximately 24 nM in HGE buffer (100 mM Hepes pH 7.5, 0.5 mM EDTA, 20% glycerol, 0.1% Bovine Serum Albumin (BSA), and activated by adding dithiothreitol (DTT) to a final concentration of 5 mM. The activated enzyme is then aliquoted into wells containing inhibitor or vehicle, and the plate is preincubated for 60 minutes at ambient temperature. Substrate (Ac-Tyr-Val-Ala-Asp-pNA) is added to each well to a final concentration of 50 µM, and plates are placed in the microtitre plate-reader thermostated to 25°°C. Beginning 5 minutes after addition of substrate, absorbance (405 nm) of wells is monitored for 1 hour, and activity is calculated as the mean rate of change in absorbance during this interval.

[5] = tested on: focal cerebral ischemia; assay: Ischemic brain damage model: permanent (MCAOp) and transient (MCAOt) focal cerebral ischemia; assay type: in vivo, CD-1 mice
Method: Compound 1 is tested in both permanent (MCAOp) and transient (MCAOt) models of focal cerebral ischemia in the mouse. The middle cerebral artery is occluded by an intraluminal suture in CD-1 mice. In the transient model, the suture is withdrawn after 1 hour and in both studies, mice are sacrificed at 24 hours, and brain lesion size is determined from H and E stained sections. Drug or vehicle is administered IP at -5, 60, and 180 minutes from the time of vessel occlusion at doses of 25 and 50 mg/kg × 3 (MCAOp) or 50 mg/kg × 3 (MCAOt). In the more severe MCAOp, there is a small reduction in lesion size (13%, p <0.04, one-tailed t-test) at the high dose whereas, in the less severe MCAOt, the lesion size is 60% smaller in the drug treated mice (p <0.002).

[6] = molecular target: T2, Ich-2 (Caspase 4) (Homo sapiens, UniProt P49662); assay: Ich-2 colorimetric dose-response (IC50) assay; assay type: biochemical; settings: enzyme 64 nM, 60 µM Ac-Leu-Glu-Val-Asp-pNA
T2 sequence (P49662 81-270 limits assumed): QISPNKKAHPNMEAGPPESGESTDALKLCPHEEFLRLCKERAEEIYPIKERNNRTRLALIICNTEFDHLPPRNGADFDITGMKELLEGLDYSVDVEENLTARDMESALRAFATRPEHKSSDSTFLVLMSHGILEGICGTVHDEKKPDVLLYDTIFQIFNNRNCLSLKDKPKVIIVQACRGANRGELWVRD
T2 sequence (P49662 290-377 limits assumed): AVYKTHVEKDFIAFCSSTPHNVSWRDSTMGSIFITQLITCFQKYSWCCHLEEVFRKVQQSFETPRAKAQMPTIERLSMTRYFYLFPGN
Method: Inhibition of Ich-2 (Caspase 4) enzyme is assayed as described above for ICE, except that enzyme is used at 64 nM, and 60 µM of the Ich-2-specific substrate Ac-Leu-Glu-Val-Asp-pNA is used instead of the ICE substrate Ac-Tyr-Val-Ala-Asp-pNA.

[7] = tested on: excitotoxic brain damage; assay: Excitotoxic brain damage in neonatal rats; assay type: in vivo, Seven-day-old rat pups; settings: for % Loss (percent loss of hemisphere weight): 30 mg/kg intraperitoneal 0.25 hours after 15 nMoles of MDA into right caudate nucleus, five days later; for extent of exitotoxic brain damage in rat pups (result in words): summary statement
Method: Compound 1 and compound 2 are tested in a model of excitotoxic brain damage in neonatal rats. Seven-day-old rat pups are anesthetized with ether, placed in a head holder and injected with 15 nMoles of MDA into the right caudate nucleus. The pups are treated by intraperitoneal injection with drug (30 mg/kg) or vehicle (0.2% methocel in water) 0.25 hours later and then returned to their home cage. Five days following this excitotoxic challenge, the pups are sacrificed, their brains removed and hemispheres weighed. The loss in weight of the injected hemisphere relative to the contralateral hemisphere is an estimate of the degree of brain necrosis. […] Importantly, such protection is not seen at the same dose of compound 2.

SMILES | pIC50 [1] | inhibition of IL-1β production [2] [%] | production of IL-1β (result in words) [2] | Mode of Inhib. [3] | pKi ([3]; 0.24 nM ICE, 15 µM Ac-Tyr-Val-Ala-Asp-AMC, reversible competitive model, read-out: 1. ICE Ki) | pIC50 [4] | reduction in lesion size ([5]; MCAOp (permanent), high dose 50 mg/kg × 3 IP at -5, 60, 180 minutes, 24 hours) [%] | lesion size smaller in drug treated mice ([5]; MCAOt (transient, suture withdrawn after 1 hour), 50 mg/kg × 3 IP, 24 hours) [%] | arterial lesion size in ischemic brain damage (result in words) ([5]; mice, middle cerebral artery occlusion after reperfusion, summary statement) | pIC50 [6] | % Loss (percent loss of hemisphere weight) [7] [%] | extent of exitotoxic brain damage in rat pups (result in words) [7]
O=CC(CC(=O)O)NC(=O)Cn1c(-c2ccc(F)cc2)ncc(NC(=O)OCc2ccccc2)c1=O [Compound 1, N-[2-(5-benzyloxycarbonyl-amino-6-oxo-2-(4-fluorophenyl)-1,6-dihydro-1-pyrimidinyl)acetoxyl]-L-aspartic acid aldehyde] | 5.74 | 48 | significantly blocks | reversible | 7.22 | 6.31 | 13 | 60 | reduced arterial lesion size | 5.01 | 16.1 | significantly reduces
O=C(O)CC(NC(=O)Cn1c(-c2ccc(F)cc2)ncc(NC(=O)OCc2ccccc2)c1=O)C(=O)COc1cc(C(F)(F)F)nn1-c1ccccc1 (centres unmarked) [Compound 2, reference compound] | 5.66 | 11 | inactive | irreversible |  | 8.40 |  |  |  | 8.30 | 20.8 | not seen
